Measured values published in patent US20090214696A1, “Lycopene Incorporation Into Egg Yolks” (priority 2005, published 2009).
Like-named read-outs stand apart in the source and are kept apart here.

Key:
[1] = Study 2: Roche Yolk Colour Fan; type: in vivo, Second Cycle Hyline W36 Hens; conditions: 880 or 5140 mg lycopene/kg diet or 7.8 mg Lutein/kg diet dispersed in H2O, 19 d
Excerpt: (§1) Commercial laying hen diet (corn, soybean, from NuWest) was supplemented with lycopene and lutein (DSM). Second Cycle Hyline W36 Hens were housed in standard lay cages. Dependant Variables: Yolks and Plasma. Lipid Extraction was done as previously described (Koutsos at al. 2003 J Nutr 133:1132-1138). A UV/VIS spectrophotometer was use to measure absorbance at 464 nm for Lutein and 352 nm for Lycopene. For Studies 2 and 3, the Roche Colour Score was taken of egg yolks using a blind analysis. The following statistics were calculated: ANOVA for main effect of diet+days on diet and interactions and t-test for differences between means. Results were significant at p<0.05.
(§2) In Study 2, 5 hens were housed per cage and 3 cages were given treatment for 19 d on a diet at 100 g diet/bird*d. Lycopene and Lutein levels were increased and dispersed in H2O: Diet 1: Negative Control+3000 ml H2O; Diet 2: Negative Control+880 mg lycopene/kg diet +3000 ml H2O; Diet 3: Negative Control+5140 mg lycopene/kg diet+3000 ml H2O; Diet 4: Negative Control+7.8 mg Lutein/kg diet+3000 ml H2O. The Roche Yolk Colour Fan was used (FIG. 4, 5). […] Diet had no effect on Yolk Lutein and/or Lycopene (p>0.20 for all). Diet on Plasma lycopene had no effect (p=0.17). Plasma Lutein+Lycopene had no effect (p=0.07). Diet on Plasma Lutein: (p=0.04).

[2] = egg vs vegetable sources; cited from earlier work
[3] = Study 2: yolk and plasma lycopene/lutein by UV/VIS spectrophotometer; type: in vivo, Second Cycle Hyline W36 Hens
Excerpt: as §1, §2

[4] = Study 1: yolk and plasma lycopene/lutein by UV/VIS spectrophotometer; type: in vivo, second cycle laying hens (Hyline W36); conditions: Diet 4: 48 mg lycopene + 6.5 mg Lutein/kg diet, 19 d
Method: Lycopene is a carotenoid with potential anti-cancer functions. […] Therefore, second cycle laying hens (Hyline W36) were examined for their ability to absorb dietary lycopene and incorporate lycopene into egg yolks. A completely randomized design was used in which 3 levels of dietary lycopene (0, 1.0 and 5.7 mg/bird*day) or lycopene +lutein (5.7 mg lycopene+0.8 mg lutein/bird*day) were incorporated into the birds normal diet. Birds were housed in commercial cages with ad libitum access to water (n=3 cages/diet; 5 birds/cage), and were fed 120 g diet/bird*day. […] Future trials will examine increased dietary lycopene levels and routes of administration.
as §1, with “p<0.05. […]” for “p<0.05.”

[5] = Yolk lycopene concentration by HPLC in eggs from hens fed lycopene (Example 1 trial); type: in vivo, White Leghorn laying hens
Excerpt: (§3) The purpose of this trial was to examine the ability of the laying hen to deposit lycopene into the egg yolk for the purpose of supplementing human diets with additional lycopene. Control egg-laying hens were fed a 100 gram per bird basal diet for 15 days described in Table 1. Test hens were fed the basal diet supplemented with varying amounts of lycopene.
(§4) The California Polytechnic State University Animal Care and Use Committee approved all protocols. Using a completely randomized design, first-cycle White Leghorn (Hyline W36 strain, 23 wks old) laying hens from the Cal Poly University flock were randomly assigned to one of three dietary lycopene levels. Birds were fed a basal diet formulated to meet or exceed all nutrient requirements for laying hens (National Research Council 1994 Nutrient requirements of Poultry, Ninth Revised Edition, National Academy Press, Washington, D.C.) plus either 0, 65, 257, or 650 mg lycopene/kg diet; the lycopene provided was the all-trans isomer. Dietary levels were chosen based on the amount of lycopene contained in an uncooked 100 g tomato, as well as data concerning the absorption of lutein by laying hens (Leeson, S. and Caston, L. 2004 Poultry Science 83:1709-1712). Lycopene was supplied in a 5% powder form attached to a gelatin molecule. In order for lycopene to be absorbed from this source, water (60° C.) was used to disperse the lycopene prior to dietary addition.
Hens were housed in commercial-type cages (n=3 cages/diet, 4 birds/cage, 135 sq. inches/bird) with ad libitum access to water. Hens were fed their assigned diets at 100 g/bird*day for 15 days. Eggs were gathered daily, and after 15 days of dietary feeding, analysis of egg lycopene levels were completed by Roche color score (a standardized set of color swatches corresponding to a number from 1-15) and by HPLC analysis (DSM International, Basel Switzerland).

[6] = Study 3: Roche Yolk Colour Fan; type: in vivo, Second Cycle Hyline W36 Hens; conditions: control diet vs diets >1285 mg Lycopene, 15 d
Excerpt: as §1
(§5) In Study 3, 5 hens were housed per cage and 1 cage received treatment for 15 d on diet at 100 g diet/bird*d. Lycopene levels were increased and dispersed in H2O: Diet 1: Negative Control+3000 ml H2O; Diet 2: Negative Control+880 mg lycopene/kg diet+3000 ml H2O; Diet 3: Negative Control+1285 mg lycopene/kg diet+3000 ml H2O; Diet 4: Negative Control +2570 mg lycopene/kg diet+3000 ml H2O; Diet 5: Negative Control+3855 mg lycopene/kg diet+3000 ml H2O; Diet 6: Negative Control+5140 mg lycopene/kg diet+3000 ml H2O; Diet 7: Negative Control+6425 mg lycopene/kg diet+3000 ml H2O; Diet 8: Diet 5+7.8 mg Lutein/kg diet; Diet 9: Diet 7+7.8 mg Lutein/kg diet.

[7] = acute toxicity, rats; cited from earlier work
[8] = Study 3: yolk and plasma lycopene/lutein by UV/VIS spectrophotometer; type: in vivo, Second Cycle Hyline W36 Hens
Excerpt: as §1, §5

[9] = acute toxicity, mice; cited from earlier work
[10] = Roche yolk color score of eggs from hens fed lycopene (Example 1 trial); type: in vivo, White Leghorn laying hens; conditions: 65, 257 or 650 mg lycopene/kg diet vs 0 mg, 15 days, p<0.05
Excerpt: as §3
as §4, with “In order for lycopene to be absorbed from this source, water (60° C.) was used to disperse the lycopene prior to dietary addition.” left out

[11] = Study 1: Roche color fan of egg yolks; type: in vivo, second cycle laying hens (Hyline W36); conditions: 0, 1.0 and 5.7 mg lycopene/bird*day, after 18 d

In the case of `CC1=C[C@H](O)CC(C)(C)[C@H]1/C=C/C(C)=C/C=C/C(C)=C/C=C/C=C(C)/C=C/C=C(C)/C=C/C1=C(C)C[C@@H](O)CC1(C)C` [lutein], the “Roche Colour Fan score” value [1] is given as “no effect”, the “Absorbance from egg relative to absorbance from vegetable sources” value [2] is given as “approximately 2.12 times” and the “Yolk lutein” value ([3]; effect of diet, Study 2, p>0.20) is given as “no effect”. The Yolk lutein ([4]; p<0.05) was “increased” and the Plasma lutein ([4]; p=0.36) was “no increase”.
In the case of `CC(C)=CCC/C(C)=C/C=C/C(C)=C/C=C/C(C)=C/C=C/C=C(C)/C=C/C=C(C)/C=C/C=C(\C)CCC=C(C)C` [lycopene], the “Yolk lycopene levels (HPLC)” value ([5]; 257 or 650 mg lycopene/kg diet vs 65 mg/kg diet, 15 days, p<0.05) is reported as “significantly greater lycopene levels”, the concentration at 15 days ([5]; female, White Leghorn (Hyline W36), chicken (laying hen), egg yolk, oral, based upon HPLC data, large egg, read-out: Maximal concentration of yolk lycopene (converted)) is reported as 4710 ng/g and the “Dietary level for optimal lycopene incorporation into egg (regression analysis)” value ([5]; regression of yolk lycopene on dietary lycopene) is reported as 420 mg/kg diet. For the same molecule, the “Roche Colour Fan score” value [1] was 5140 mg>0 mg, the “Yolk pigment (Roche color scores)” value [6] was “consistent difference in yolk pigment” and the LD50 [7] was 10,000 mg/kg body weight. The “Yolk Lycopene” value ([8]; effect of diet, Study 3, p<0.01, Diets 2, 3 = 880, 1285 mg lycopene/kg diet) was “Diet 2, 3>1, 4, 5, 6, 8, 9”, the “Yolk Lutein+Lycopene” value ([8]; effect of diet, Study 3, p=0.94) was “no effect” and the “Plasma Lutein and/or Lycopene” value ([8]; in vivo) was “no effect”. The “Plasma Lutein+Lycopene” value ([3]; in vivo) was “no effect”, the Plasma lycopene ([3]; in vivo) was “no effect” and the “Yolk Lycopene” value ([3]; in vivo) was “no effect”. The LD50 [9] was 3000 mg lycopene/kg body weight, the “Roche yolk color score” value [10] was “significantly greater yolk color score” and the “Egg yolk pigmentation (Roche color fan)” value [11] was “no detectable change in pigmentation”.
